Measured values taken from US11661404B2, “Prodrug compounds activated by AKR1C3 and their use for treating hyperproliferative disorders” (priority 2018, dated 2023).
pIC50: −log10 of the molar value. Where two headings read alike, the source gives them in different places.

How the values were obtained:
[1] = system: mixed MCLs that only express 1% of the activating reductase E. coli NfsB; conditions: 1% NfsB-expressing cells; Singleton et al., 2007; cited from earlier work
AKR1C3 mixed MCLs = conditions: Silva, MSc Thesis; cited from earlier work
[2] = system: wild-type HCT116 colon cancer cells; assay: Anti-proliferative IC50 assay (SRB), wild-type HCT116; type: cell-based, human
From the text: (§1) The cellular cytotoxicity of compounds of the invention resulting from AKR1C3-dependent metabolism of the compounds can readily be observed in anti-proliferative IC50 testing in isogenic cell lines that have been engineered to over-express human AKR1C3, relative to their wild-type counterparts that have been selected for their comparatively low levels of endogenous AKR1C3 expression (by Western blot analysis). The direct role of AKR1C3 in metabolism and cytotoxicity of the compounds is further supported for selected examples by repeat anti-proliferative experiments in the presence of a potent and selective small molecule inhibitor of AKR1C3, SN34037 (Flanagan et al., Bioorganic & Medicinal Chemistry (2014), 22(3), 967-977).
(§2) Four hundred cells were seeded in a volume of 100 μL in each well of a 96-well plate. The cells were left in a humidified incubator (37° C., 5% CO2) for 2 hours in order to enable attachment to the surface of the wells prior to compound addition. All compounds were prepared as stocks in DMSO and stored at −80° C. Frozen stocks of compounds were thawed immediately prior to addition to cells. Working solutions of each compound were made in α-MEM+5% FBS (v/v) at 3 times the required final concentration for the top well. The final concentration of DMSO in the α-MEM solution was ensured to not exceed 1% of the total volume. 50 μL of the working solution was added to the top wells (in duplicates) and gently mixed. The solubility of some compounds precluded the working solution in α-MEM to be 3 times the desired top well concentration. […] A 3-fold serial dilution was carried out along the plate starting from the top well. The first column of wells on the plate served as blanks (containing α-MEM+FBS) and the second column served as control wells (containing cells with no compound added). Following compound addition, the plates were incubated for 4 hours in a humidified incubator (37° C., 5% CO2).
(§3) Following the 4 hour compound exposure, the 96-well plates were washed three times by aspirating media with an Immuno Washer (Nunc) and each well replaced with 150 μL of α-MEM+5% (v/v) FBS+1% (v/v) P/S. The plates were left in a humidified incubator (37° C., 5% CO2) for 5 days to enable cell growth. The cells in 96-well plates were fixed 5 days after compound exposure by adding 50 μL of a 40% (w/v) trichloroacetic acid (TCA) solution so as to obtain a final TCA concentration of 10% in each well. The plates were left in the refrigerator (4° C.) for 1 hour and subsequently rinsed 3 times in tap water. Any excess water was left to drain and the cells were stained with 50 μL of 0.4% (w/v) sulforhodamine B (SRB). The plates with the SRB stain were left in the dark for 30 minutes. Excess stain was removed from the wells by rinsing the plates 4 times in water containing 1% (v/v) acetic acid. The stain was solubilised by adding 100 μL of 10 mM unbuffered Tris (pH 10.5) to each well and the plates were left in a shaker in a dark environment at room temperature for at least 1 hour. The absorbance values of the wells were determined by an ELx 808 Absorbance Microplate Reader (Bio-Tek Instruments, Winooski, Vt., USA), with the wavelength of the measurement filter set at 490 nm and a reference filter set at 450 nm. The absorbance of the reference filter was subtracted from the measurement filter to obtain a final absorbance of λ490-450 nm. The absorbance data was analysed and IC50 values determined by the KC4 microplate data analysis software (KC4™ V3.4, Bio-Tek).
(§4) Anti-proliferative IC50 assays were repeated as described above including the addition of 3 μM SN34037, a selective and potent small molecule inhibitor of AKR1C3.

[3] = system: HCT116 colon cancer cells engineered to over-express AKR1C3; assay: Anti-proliferative IC50 assay (SRB), HCT116 over-expressing AKR1C3; type: cell-based, human; conditions: for IC50 Ratio WT:AKR1C3: HCT116-WT vs HCT116-AKR1C3
From the text: as §1, §2, §3, §4

[4] = system: wild-type H460 lung cancer cells; assay: Anti-proliferative IC50 assay, wild-type H460; type: cell-based, human; conditions: for pIC50: Homo sapiens
Method: as §2, §3, §4
(§5) Materials and methods used are as described for Example 9.

[5] = system: wild-type PLC/PRF/5 hepatocellular carcinoma cells; assay: Anti-proliferative IC50 assay, wild-type PLC/PRF/5; type: cell-based, human; conditions: Homo sapiens, PLC-PRF-5
Method: as §2, §3, §4, §5

[6] = system: wild-type SNU398 hepatocellular carcinoma cells; assay: Anti-proliferative IC50 assay, wild-type SNU398; type: cell-based; conditions: Homo sapiens
Method: as §2, §3, §4
(§6) Materials and methods used are as described for Example 9. […] This is a surprising finding and considerably greater than the approximately 77-fold, 270-fold and 400-fold increase in sensitivity observed for PR-104A, SN33540 and SN34454, respectively. In all cases, this increase in cytotoxicity resulting from expression of AKR1C3 can be substantially reversed by addition of an AKR1C3 inhibitor (SN34037), directly implicating metabolism of the prodrugs by AKR1C3 in the observed increase in cytotoxicity. As an important control, introduction of SN34037 had no anti-proliferative effects in wild-type SNU398 cells treated with compounds of the invention.

[7] = system: wild-type HCT116 colon cancer cells; assay: Anti-proliferative IC50 under oxic and anoxic conditions; type: cell-based, human; conditions: for pIC50: Homo sapiens, HCT-116
From the text: PR-104A was initially designed and optimised as a hypoxia-selective cytotoxin (Patterson et al, Clinical Cancer Research, 2007, 13, 3922-3932). In the context of an AKR1C3-activated prodrug, this route of activation is considered off-mechanism and may potentially be undesirable, leading to off-target toxicities in a subject. Preferred compounds of the invention have been determined to be substantially resistant to hypoxia-dependent activation and cytotoxicity in wild-type HCT116 colon cancer cells. HCT116 cells were treated with compounds of the invention under either oxic or anoxic conditions and then their degree of anti-proliferative activity determined.
Selected compounds were evaluated for cytotoxic potential (IC50) under anoxic conditions. The same procedures as described above for Examples 9-11 were carried out in a Bactron anoxic chamber (Sheldon Manufacturing Inc) with internal 37° C. incubators where palladium catalyst scrubbed gas (90% N2, 5% H2, 5% CO2) ensured severe anoxia (<0.001% O2) in the whole chamber. All materials required (including cells) were taken into the chamber through two cycles of vacuum and gassing with 100% N2, followed by a single cycle with 5% CO2 and 5% hydrogen in nitrogen. All experimental materials were placed in the anoxic chamber at least 3 days prior to the day required for the experiment in order to remove any traces of residual O2. The medium used for the 96-well plates in the anoxic chamber consisted of α-MEM+10% (v/v) FBS+1% (v/v) additives (1 M β-D-Glucose and 20 mM 2′-Deoxycytidine).

[8] = system: SNU398 hepatocellular carcinoma cells engineered to over-express AKR1C3; assay: Anti-proliferative IC50 assay, SNU398 over-expressing AKR1C3; type: cell-based, human; conditions: for pIC50: Homo sapiens
Method: as §2, §3, §4, §6

[9] = NCI-H460, read-out: H460-WT +AKR1C3 Inhibitor Anti-proliferative IC50
[10] = NCI-H460, read-out: H460-WT Anti-proliferative IC50
[11] = read-out: PLC/PRF/5-WT Anti-proliferative IC50
[12] = with 3 μM SN34037, read-out: PLC/PRF/5-WT +AKR1C3 Inhibitor Anti-proliferative IC50
[13] = SNU-398, read-out: SNU398-WT +AKR1C3 Inhibitor Anti-proliferative IC50
[14] = SNU-398, read-out: SNU398-WT Anti-proliferative IC50
[15] = SNU-398, read-out: SNU398-AKR1C3 +AKR1C3 Inhibitor Anti-proliferative IC50
[16] = SNU-398, read-out: SNU398-AKR1C3 Anti-proliferative IC50

For `CS(=O)(=O)O.CS(=O)(=O)OCCN(CCOS(C)(=O)=O)c1ccc([N+](=O)[O-])cc1S(=O)(=O)N1CCNCC1`, the melting point was 147 to 149 °C.

In the case of `O=C(NCCO)c1cc([N+](=O)[O-])cc([N+](=O)[O-])c1N(CCBr)CCBr` [SN27686, reference compound], the bystander effect [1] is listed as 48%, the “BEE reported in AKR1C3 mixed MCLs” value (AKR1C3 mixed MCLs) is listed as 57.6% and the pIC50 ([2]; 4 hour exposure, 5 days growth, read-out: HCT116-WT IC50) is listed as 4.37. For the same molecule, the pIC50 ([3]; 4 hour exposure, 5 days growth, read-out: HCT116-AKR1C3 IC50) was 5.84 and the “IC50 Ratio WT:AKR1C3” value [3] was 29.

For `CN1CCN(C(=O)c2cc([N+](=O)[O-])cc([N+](=O)[O-])c2N(CCBr)CCOS(C)(=O)=O)CC1` [SN33540, reference compound], the pIC50 [4, 9] is listed as 4.01, the pIC50 [4, 10] is listed as 6.27 and the “BEE reported in AKR1C3 mixed MCLs” value (AKR1C3 mixed MCLs) is listed as 60%. It also gave a pIC50 [5, 11] of 4.08, a pIC50 [5, 12] of 3.61 and a pIC50 [6, 13] of 3.61. The pIC50 [6, 14] was 3.64, the pIC50 ([7]; anoxic (<0.001% O2), read-out: HCT116-WT Anti-proliferative IC50 Anoxic) was 5.29 and the pIC50 ([7]; read-out: HCT116-WT Anti-proliferative IC50 Oxic) was 3.90. The “Hypoxic Cytotoxicity Ratio (HCR)” value ([7]; oxic vs anoxic IC50, HCT116-WT) was 25, the pIC50 [8, 15] was 3.71 and the pIC50 [8, 16] was 6.07. For the same molecule, the “increase in sensitivity when SNU398 cells express AKR1C3” value ([8]; SNU398-WT vs SNU398-AKR1C3) was ~270 fold.

In the case of `CN1CCN(S(=O)(=O)c2cc([N+](=O)[O-])ccc2N(CCBr)CCBr)CC1` [Compound 563, N,N-bis(2-bromoethyl)-2-((4-methylpiperazin-1-yl)sulfonyl)-4-nitroaniline], the “more cytotoxic in H460 cells than SN34118” value [4] was 82 fold, the pIC50 [4, 9] was 5.51 and the pIC50 [4, 10] was 7.72. For the same molecule, the pIC50 ([2]; Homo sapiens, HCT-116, read-out: HCT116-WT IC50) was 5.13, the pIC50 ([2]; read-out: HCT116-WT + AKR1C3 Inhibitor IC50, with 3 μM SN34037) was 5.23 and the pIC50 [5, 11] was 5.38. It also gave a pIC50 [5, 12] of 4.67, a pIC50 [6, 13] of 5.23 and a pIC50 [6, 14] of 5.16. The “more cytotoxic than SN34118 to AKR1C3-expressing HCT116 cells” value [3] was 43 fold, the “IC50 Ratio WT:AKR1C3” value [3] was 816 and the pIC50 ([3]; Homo sapiens, HCT-116, read-out: HCT116-AKR1C3 IC50) was 8.05. It also gave a pIC50 ([3]; read-out: HCT116-AKR1C3 + AKR1C3 Inhibitor IC50, with 3 μM SN34037) of 5.49, a pIC50 [8, 15] of 5.38 and a pIC50 [8, 16] of 7.82.
